Assay results published in patent publication US20240173375A1, “CHEMOTACTIC AUTOPHAGY-INHIBITING PEPTIDE, COMPOSITIONS AND METHODS RELATED THERETO” (Biotempt B.V., priority 2021, published 2024).

Columns and labels:
[1] = cited from earlier work
[2] = tested on: STAT3, JNK and P42/p44MAPK/ERK1,2 kinases; assay: FPR-signaling assay: STAT3, JNK and P42/p44MAPK/ERK1,2 phosphorylation in FPR-expressing cells; format: cell-based; conditions: throughout 600 seconds
Description: (§1) Both AQGV (SEQ ID NO:11) peptide effects on p38 and PKB-mediated signalling last for the full 600 seconds tested whereas the other kinases tested were not affected throughout. […] The pathway is governing the balance between proteolysis and proteogenesis regulating cytoskeleton changes affecting vascular permeability. It is shown that an autophagy-inhibiting peptide reduces p38 MAPK kinase activated changes as well as reduces PI3K/AKT/mTOR activated induced changes in cell cytoskeleton reorganization affecting endothelial cell contraction and adverse vascular permeability. Autophagy-inhibiting peptide is useful and capable of addressing adverse vascular permeability, such as manifested by edema with vascular leakage, adverse leukocyte extravasation and hypotension, tissue injury and immune responses in human subjects.

[3] = cited from earlier work; remark: listed apart in the source
[4] = tested on: PKB (also known as AKT); assay: FPR-signaling assay: PKB (AKT) phosphorylation in FPR-expressing cells stimulated with fMLP; format: cell-based
Description: The pathway is governing the balance between proteolysis and proteogenesis regulating cytoskeleton changes affecting vascular permeability.

[5] = tested on: p38 MAPK; assay: FPR-signaling assay: p38 MAPK phosphorylation in FPR-expressing cells stimulated with fMLP; format: cell-based
Description: as §1

[6] = 50 mg/kg twice daily i.p.; cited from earlier work

Q: Which results are given for AQGV (tetrapeptide)?
A: endotoxin induced increase in plasma levels of cytokines and adhesion molecule VCAM-1 ([1]; 180 mg/kg (the highest dose)): significant attenuation; fever and flu-like symptoms ([1]; the highest dose): reduced; peptide effect on the other kinases tested [2]: not affected; survival ([3]; 20-50 mg/kg twice daily i.p. for four days, started 24 hours after IRI, dose dependent): markedly improved; CTGF up-regulation, marker of post-ischemic fibrosis ([3]; four weeks after IRI, renal tissue): significantly less; tubular epithelial cell proliferation ([3]; mouse, in vivo): significantly enhanced; acute tubular injury ([3]; two days after IRI): diminished; time at which peptide effects on PKB(AKT) follow after FPR-stimulation ([4]; bi-phasic pattern, peptide at 20 ng/ml or 50 ng/ml, fMLP stimulation): 300 s; duration of peptide effects on PKB-mediated signalling ([4]; full period tested): 600 s; effect on p38/p38-MK2-HSP27 and/or PI3K/AKT/mTOR pathways ([5]; formyl-peptide related signaling): attenuate; duration of peptide effects on p38-mediated signalling ([5]; full period tested): 600 s; time at which peptide effects on p38 MAPK are detected after FPR-stimulation ([5]; peptide at 20 ng/ml or 50 ng/ml, fMLP stimulation): 30 s; renal function and allograft survival [6]: improved
